Activity calls are given as the source filed them. The calls are words filed in the database; no cut-off is given here.
Assays:
[1] = system: Mus musculus; experiment: Anti-osteoporotic activity in OVX-induced bone loss ICR mouse model assessed as decrease in trabecular bone destruction in femur at 10 ug/kg, po administered for 12 weeks via gavage by microcomputed tomography; format: functional, organism-based
[2] = system: Mus musculus; experiment: Effect on TRAP activity in serum of OVX-induced bone loss ICR mouse model at 10 ug/kg, po via gavage for 12 weeks (reference value: 19.8 +/- 1.0 U/L); format: functional
[3] = system: Mus musculus; experiment: Effect on osteocalcin level in serum of OVX-induced bone loss ICR mouse model at 10 ug/kg, po via gavage for 12 weeks by ELISA (reference value: 176.9 +/- 4.7 ng/ml); format: functional
[4] = system: Mus musculus; experiment: Effect on […] level in serum of OVX-induced bone loss ICR mouse model at 10 ug/kg, po via gavage for 12 weeks by ELISA (reference value: 8.2 +/- 0.4 mg/dl); format: functional
[5] = system: Mus musculus; experiment: Effect on C-terminal telopeptide level in serum of OVX-induced bone loss ICR mouse model at 10 ug/kg, po via gavage for 12 weeks by ELISA (reference value: 95.7 +/- 3.8 ng/ml); format: functional
[6] = system: Mus musculus; experiment: Effect on calcium level in serum of OVX-induced bone loss ICR mouse model at 10 ug/kg, po via gavage for 12 weeks by ELISA (reference value: 9.3 +/- 0.3 mg/dl); format: functional
[7] = system: Mus musculus; experiment: Effect on alkaline phosphatase activity in serum of OVX-induced bone loss ICR mouse model at 10 ug/kg, po via gavage for 12 weeks using p-NPP as substrate (reference value: 84.9 +/- 4.2 U/L); format: functional

In the case of C[C@]12CC[C@@H]3c4ccc(O)cc4CC[C@H]3[C@@H]1CC[C@@H]2O [ESTRADIOL], the Activity [1] is reported as “Active”, the Activity [2] is reported as 10.8 U/L and the Activity [3] is reported as 141.9 ng/mL. The Activity [4] was 7.9 mg/dL, the Activity [5] was 76.6 ng/mL and the Activity [6] was 9.1 mg/dL. The Activity [7] was 59.9 U/L.

Reference: ChEMBL document CHEMBL4052590, “Anti-Osteoporotic Activity of Harpagoside by Upregulation of the BMP2 and Wnt Signaling Pathways in Osteoblasts and Suppression of Differentiation in Osteoclasts” (J Nat Prod, 2017)
